Measured values taken from US20150283120A1, “ANTIBIOTIC METHODS AND COMPOSITIONS FOR BACTERIA INFECTIONS” (THE UNIVERSITY OF CHICAGO, priority 2012, published 2015).
“Also recorded” adds a separate entry of the source. Where two headings read alike, the source gives them in different places.

Legend:
VISA 2283 = experiment: microbe, parasite or virus in culture; assay type: cell-based, Staphylococcus aureus; conditions: for Synergy category: VISA 2283, with vancomycin
Text: (§1) As shown in the analysis of the checkerboard assays (Table 6), gossypol fully potentiated vancomycin (FIC i<0.5) in hVISA, VISA, VRS2 and VRS1. […] Clomiphene partially potentiated vancomycin in hVISA, VISA, and VRS1 and it fully potentiated in strain VRS2.

diverse MRSA strains = experiment: MIC of oxacillin with a single concentration of compound in multiple MRSA strains; assay type: cell-based, Staphylococcus aureus; conditions: for MIC 80 of Ox in presence of compound: panel of 11 MRSA isolates, clom 3.8 μM, gos 15 μM, pyr 0.5 μM; for MIC50 of oxacillin in the presence of compound / MIC80 of oxacillin in the presence of compound / fold decrease in the oxacillin MIC50: panel of strains; for fold decrease in the oxacillin MIC50: with compound against oxacillin alone
Protocol: Testing potentiation of oxacillin by compounds in multiple MRSA strains: In order to be considered a synergistic agent in therapy of MRSA infection, it must be effective as a potentiator in diverse MRSA strains. To determine whether the oxacillin potentiators were effective against MRSA strains besides USA300, a single effective concentration of three compounds that were not known as antibiotics—gossypol, pyrvinium and clomiphene—were tested against multiple MRSA genetic backgrounds. Each compound was tested at a single optimal concentration, determined in the checkerboard assays, in combination with various concentrations of oxacillin. The strains included in this panel were from diverse genetic backgrounds as determined by multilocus sequence type (MLST) and contained a variety of SCCmec types. […] The MIC80 was […] for clomiphene, gossypol, and pyrvinium, respectively.

VRS1 = experiment: microbe, parasite or virus in culture; assay type: cell-based, Staphylococcus aureus; conditions: for MIC: Staphylococcus aureus, read-out: MIC compound
Text: as §1

VRS2 = experiment: microbe, parasite or virus in culture; assay type: cell-based, Staphylococcus aureus; conditions: for MIC: Staphylococcus aureus, read-out: MIC compound; for Synergy category: with vancomycin
Text: as §1

hVISA 2275 = experiment: microbe, parasite or virus in culture; assay type: cell-based, Staphylococcus aureus; conditions: for MIC: Staphylococcus aureus, read-out: MIC compound; for MIC (in combination) compound+: compound MIC with the indicated Van concentration; for Synergy category: with vancomycin
Text: as §1

strain 11095 = experiment: Checkerboard oxacillin + compound, strain 11095; parameters: MIC OX / MIC OX (+) / MIC cmpd alone: unit not given beside the values; conditions: for FICi: oxacillin + compound
[1] = test system: MRSA strain USA300-isolate 923; experiment: Checkerboard MIC testing of compounds with oxacillin; assay type: cell-based, Staphylococcus aureus; conditions: for oxacillin MIC: strain 923, 24 h; for change of the MIC of oxacillin with compound concentration: strain 923, checkerboard; for bactericidal effect of oxacillin (MBC, >99.9% killing): strain 923, wells with FICi≦0.5 spotted on TSA
[2] = test system: test strain (923 pPvra-lux); experiment: Primary screen: growth (OD) of test strain with compound, with and without oxacillin; assay type: cell-based, Staphylococcus aureus; conditions: compound 10 μM, with and without oxacillin 2 μg/mL; OD at 24 h; library screened twice
[3] = test system: vraSR transcription (Pvra::lux); assay type: cell-based, Staphylococcus aureus; conditions: compound 10 μM + oxacillin 2 μg/mL; for RL avg (relative luminescence): ratio of LU to oxacillin alone, four runs
Summary of the method: (§2)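 Secondary screen: compound at 10 μM plus oxacillin 2 μg/mL, four biological replicates, luminescence read every 15 minutes. RG and RL are OD600 or max LU with compound plus oxacillin over pooled same-plate oxacillin controls; RL <0.8 repressor, >1.2 stimulator, 0.80-1.2 neutral.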

[4] = test system: MRSA strain USA300 Pvra-lux; assay type: cell-based, Staphylococcus aureus; conditions: compound 10 μM + oxacillin 2 μg/mL; for RG avg (relative growth): ratio of OD600 to oxacillin alone, four runs
Summary of the method: as §2

[5] = test system: vraSR operon (vra promoter, Pvra::lux); experiment: Primary screen: Pvra-lux luminescence (vraSR induction); assay type: cell-based, Staphylococcus aureus; conditions: compound 10 μM, oxacillin 2 μg/mL; luminescence at 2 hours; library screened twice
MRSA strain 8004-01 = experiment: Checkerboard oxacillin + compound, strain 8004-01; parameters: MIC OX / MIC OX (+) / MIC cmpd alone: unit not given beside the values; conditions: strain 8004-1 (ST239); for MIC cmpd +: compound in combination with oxacillin; for FICi: oxacillin + compound; for MIC OX (+): oxacillin in combination with compound
vraR transcription = experiment: Tertiary screen: qRT-PCR of vraR in strain 923; assay type: cell-based, Staphylococcus aureus; conditions: for classification of lux screen result against qRT-PCR (true/false repressor or stimulator): in the presence of oxacillin; for Effect on vraSR Transcription: With oxacillin: qRT-PCR of vraR, compound 10 μM + oxacillin 2 μg/mL

## Cc1cc(/C=C/c2ccc3cc(N(C)C)ccc3[n+]2C)c(C)n1-c1ccccc1 [Pyrvinium pamoate, 2-[(E)-2-(2,5-Dimethyl-1-phenylpyrrol-3-yl)ethenyl]-N,N,1-trimethylquinolin-1-ium-6-amine]
VISA 2283; listed as Pyr
  Synergy category: non syn
Diverse MRSA strains
  MIC 80 of Ox in presence of compound: 32 µg/mL
  MIC50 of oxacillin in the presence of compound: 1 µg/mL
  MIC80 of oxacillin in the presence of compound: 0.032 µg/mL
  fold decrease in the oxacillin MIC50: 16 fold
VRS1; VRS1, compound alone
  MIC: 2.24 µg/mL
VRS1; VRS1
  fold decrease Van MIC: 64 fold
VRS2; VRS2, compound alone
  MIC: 1.12 µg/mL
VRS2; VRS2, listed as Pyr
  Synergy category: synergistic (fully potentiated vancomycin (FIC i<0.5))
hVISA 2275; hVISA 2275, compound alone
  MIC: 16 µg/mL
hVISA 2275; hVISA 2275
  FICi V + compound: 0.54
  Van FIC: 0.50
  compound FIC: 0.04
  fold decrease Van MIC: 2 fold
  MIC (in combination) compound+: 0.56
hVISA 2275; hVISA 2275, listed as Pyr
  Synergy category: partial (partially potentiated vancomycin (FIC i>0.5 and <1.0))
Strain 11095
  FIC Compound: 0.25
  FIC Ox: .0078
  MIC cmpd alone: 16
  fold decrease of the oxacillin MIC: 128 fold
  FICi: 0.26
Strain 11095; listed as Pyr
  FICi: .26
Strain 11095; oxacillin in combination with compound
  MIC OX (+): 4
[1]; compound 0.25 μM
  oxacillin MIC: 16 µg/mL
[1]; compound 0.5 μM
  oxacillin MIC: 4 µg/mL
[1]; compound 1 μM
  oxacillin MIC: 2 µg/mL
[1]
  change of the MIC of oxacillin with compound concentration: dose dependent decrease
  bactericidal effect of oxacillin (MBC, >99.9% killing): increased the bactericidal effect of oxacillin
[2]
  primary screen category by effect on growth of MRSA strain 923: strong growth inhibitors on their own
[3]
  Effect on vraSR transcription: repress (“vraSR repressors” (mean RL of <0.8))
  RL avg (relative luminescence): 0.31
[4]
  OD600 category: inhibited (of <0.8 were classified as oxacillin synergists or potentiators)
  RG avg (relative growth): 0.39
[5]
  primary screen category by effect on vraSR (Pvra-lux luminescence): repressed Pvra::lux in both primary screens
MRSA strain 8004-01
  MIC cmpd alone: >4
  MIC cmpd +: >4 µg/mL
  FICi: 7
  MIC OX (+): >256
vraR transcription
  classification of lux screen result against qRT-PCR (true/false repressor or stimulator): true vraSR expression repressors
  Effect on vraSR Transcription: With oxacillin: vraR inhibitors; also recorded: repress

## Cc1cc2c(C(C)C)c(O)c(O)c(C=O)c2c(O)c1-c1c(C)cc2c(C(C)C)c(O)c(O)c(C=O)c2c1O [Gossypol, 2,2′-bis-(Formyl-1,6,7-trihydroxy-5-isopropyl-3-methylnaphthalene)]
VISA 2283; Staphylococcus aureus, VISA, read-out: MIC compound
  MIC: 10.4 µg/mL
VISA 2283
  Synergy category: fully potentiated (fully potentiated vancomycin (FIC i<0.5))
VISA 2283; listed as Gos
  Synergy category: partial (partially potentiated vancomycin (FIC i>0.5 and <1.0))
Diverse MRSA strains
  MIC 80 of Ox in presence of compound: 8 µg/mL
  MIC50 of oxacillin in the presence of compound: 0.5 µg/mL
  MIC80 of oxacillin in the presence of compound: 0.008 µg/mL
  fold decrease in the oxacillin MIC50: 32 fold
VRS1
  MIC: 20.8 µg/mL
VRS1; VRS1, with vancomycin, listed as Gos
  Synergy category: synergistic (fully potentiated vancomycin (FIC i<0.5))
VRS2
  MIC: 5.2 µg/mL
VRS2; VRS2
  FICi V + compound: 0.31
  Van FIC: 0.06
  compound FIC: 0.25
  fold decrease Van MIC: 16 fold
VRS2; VRS2, compound MIC with the indicated Van concentration
  MIC (in combination) compound+: 1.3
VRS2; VRS2, listed as Gos
  Synergy category: synergistic (fully potentiated vancomycin (FIC i<0.5))
hVISA 2275
  MIC: 10.4 µg/mL
hVISA 2275; hVISA 2275
  FICi V + compound: 0.38
  Van FIC: 0.25
  compound FIC: 0.125
  fold decrease Van MIC: 4 fold
  MIC (in combination) compound+: 1.3
  Synergy category: fully potentiated (fully potentiated vancomycin (FIC i<0.5))
hVISA 2275; hVISA 2275, listed as Gos
  Synergy category: synergistic (fully potentiated vancomycin (FIC i<0.5))
[1]; compound 0.25 μM
  oxacillin MIC: 32 µg/mL
[1]; compound 0.5 μM
  oxacillin MIC: 32 µg/mL
[1]; compound 1 μM
  oxacillin MIC: 16 µg/mL
[1]; compound 2 μM
  oxacillin MIC: 4 µg/mL
[1]; compound 4 μM
  oxacillin MIC: 2 µg/mL
[1]; compound 8 μM
  oxacillin MIC: 2 µg/mL
[1]; compound 16 μM
  oxacillin MIC: 2 µg/mL
[1]
  change of the MIC of oxacillin with compound concentration: dose dependent decrease
  bactericidal effect of oxacillin (MBC, >99.9% killing): increased the bactericidal effect of oxacillin
[2]
  primary screen category by effect on growth of MRSA strain 923: strong growth inhibitors on their own
[3]
  Effect on vraSR transcription: repress (“vraSR repressors” (mean RL of <0.8))
  RL avg (relative luminescence): 0.11
[4]
  OD600 category: inhibited (of <0.8 were classified as oxacillin synergists or potentiators)
  RG avg (relative growth): 0.16
[5]
  primary screen category by effect on vraSR (Pvra-lux luminescence): repressed Pvra::lux in both primary screens
MRSA strain 8004-01
  FIC Compound: .5
  FIC Ox: .06
  MIC cmpd alone: 40
  MIC cmpd +: 20 µg/mL
  FICi: 0.56
  MIC OX (+): 32
MRSA strain 8004-01; listed as Gos
  FICi: .56
vraR transcription
  classification of lux screen result against qRT-PCR (true/false repressor or stimulator): true vraSR expression repressors
  Effect on vraSR Transcription: With oxacillin: vraR inhibitors; also recorded: repress
